From patent US10202658B2, “Methods for determining hypersusceptibility of HIV-1 to non-nucleoside reverse transcriptase inhibitors” (Monogram Biosciences, Inc., priority 2005, dated 2019)

Tested on: HIV-1 clinical isolates grouped by RT mutations
Assay: Pairwise comparison of NNRTI fold change between groups of clinical isolates (Student's T-test, Bonferroni's Multiple Comparison Test)
Format: cell-based
Procedure: This example provides methods and compositions for identifying mutations that correlate with hypersusceptibility to a NNRTI. Resistance test vectors were constructed and used as described in Example 1. Resistance test vectors derived from patient samples or clones derived from the resistance test vector pools were tested in a resistance assay to determine accurately and quantitatively the relative EFV, DLV, or NVP resistance or susceptibility compared to the median observed resistance or susceptibility.
To identify mutations associated with NNRTI hypersusceptibility, the following analysis was performed. […] The TAMs referenced in. Table 1 include M41L, D67N, K70R, L210W, T215FY, and K219X, while the NAMs referenced include K65R, T69X, L74IV, V75X, and M184IV. Isolates without NRTI, NNRTI or PI mutations served as a wild type (WT) reference group. Further comparison groups comprised isolates with three TAMS including T215Y (+/−H208Y, +/−V118I) or three TAMS including K70R. Scatter plots and statistical tests (See FIGS. 1-6) were generated using Prism 4.0 (GraphPad, San Diego, Calif.)
In addition, a pairwise comparison between two sets of data was conducted using Bonferroni's Multiple Comparison Test using the Prism 4.0 software. The results of the comparison are presented in Tables 2, 3, and 4, appended to the end of this document. Samples with K65R, K65R+M184V, or 2 TAMs in combination with T215Y had over 40% with EFV FC<0.4.

In the case of O=C1Nc2ccc(Cl)cc2[C@@](C#CC2CC2)(C(F)(F)F)O1 [EFV, efavirenz], the “Mean Diff. of fold change” value (1 NAM vs 2 NAMs) is reported as 0.1722, the “Mean Diff. of fold change” value (1 NAM vs 3 NAMs) is reported as 0.1256 and the “Mean Diff. of fold change” value (1 NAM vs K65R) is reported as 0.1565. The “Mean Diff. of fold change” value (1 NAM vs K65R + M184V) was 0.2694, the “Mean Diff. of fold change” value (1 NAM vs K70R_3_TAMs) was −0.02778 and the “Mean Diff. of fold change” value (1 NAM vs M184V) was 0.001657. The “Mean Diff. of fold change” value (1 NAM vs T69) was −0.09534, the “Mean Diff. of fold change” value (1 NAM vs T215Y_3_TAMs) was 0.2651 and the “Mean Diff. of fold change” value (1 NAM vs T215Y_3_TAMs_118) was 0.3291. For the same compound, the “Mean Diff. of fold change” value (1 NAM vs T215Y_3_TAMs_208) was 0.3294, the “Mean Diff. of fold change” value (1 NAM vs T215Y_3_TAMs_no118) was 0.2225 and the “Mean Diff. of fold change” value (1 NAM vs T215Y_3_TAMs_no208) was 0.2549. The “Mean Diff. of fold change” value (2 NAMs vs 3 NAMs) was −0.04654, the “Mean Diff. of fold change” value (2 NAMs vs K65R) was −0.01562 and the “Mean Diff. of fold change” value (2 NAMs vs K65R + M184V) was 0.09723. For the same compound, the “Mean Diff. of fold change” value (2 NAMs vs K70R_3_TAMs) was −0.1999, the “Mean Diff. of fold change” value (2 NAMs vs M184V) was −0.1705 and the “Mean Diff. of fold change” value (2 NAMs vs T69) was −0.2675. The “Mean Diff. of fold change” value (2 NAMs vs T215Y_3_TAMs) was 0.09297, the “Mean Diff. of fold change” value (2 NAMs vs T215Y_3_TAMs_118) was 0.1569 and the “Mean Diff. of fold change” value (2 NAMs vs T215Y_3_TAMs_208) was 0.1573. The “Mean Diff. of fold change” value (2 NAMs vs T215Y_3_TAMs_no118) was 0.05035, the “Mean Diff. of fold change” value (2 NAMs vs T215Y_3_TAMs_no208) was 0.08272 and the “Mean Diff. of fold change” value (3 NAMs vs K65R) was 0.03092. The “Mean Diff. of fold change” value (3 NAMs vs K65R + M184V) was 0.1438, the “Mean Diff. of fold change” value (3 NAMs vs K70R_3_TAMs) was −0.1534 and the “Mean Diff. of fold change” value (3 NAMs vs M184V) was −0.124. For the same compound, the “Mean Diff. of fold change” value (3 NAMs vs T69) was −0.221, the “Mean Diff. of fold change” value (3 NAMs vs T215Y_3_TAMs) was 0.1395 and the “Mean Diff. of fold change” value (3 NAMs vs T215Y_3_TAMs_118) was 0.2035. The “Mean Diff. of fold change” value (3 NAMs vs T215Y_3_TAMs_208) was 0.2038, the “Mean Diff. of fold change” value (3 NAMs vs T215Y_3_TAMs_no118) was 0.09689 and the “Mean Diff. of fold change” value (3 NAMs vs T215Y_3_TAMs_no208) was 0.1293. For the same compound, the “Mean Diff. of fold change” value (K65R + M184V vs K70R_3_TAMs) was −0.2972, the “Mean Diff. of fold change” value (K65R + M184V vs T215Y_3_TAMs) was −0.004258 and the “Mean Diff. of fold change” value (K65R + M184V vs T215Y_3_TAMs_118) was 0.05968. The “Mean Diff. of fold change” value (K65R + M184V vs T215Y_3_TAMs_208) was 0.06005, the “Mean Diff. of fold change” value (K65R + M184V vs T215Y_3_TAMs_no118) was −0.04688 and the “Mean Diff. of fold change” value (K65R + M184V vs T215Y_3_TAMs_no208) was −0.01451. For the same compound, the “Mean Diff. of fold change” value (K65R vs K65R + M184V) was 0.1129, the “Mean Diff. of fold change” value (K65R vs K70R_3_TAMs) was −0.1843 and the “Mean Diff. of fold change” value (K65R vs M184V) was −0.1549. The “Mean Diff. of fold change” value (K65R vs T69) was −0.2519, the “Mean Diff. of fold change” value (K65R vs T215Y_3_TAMs) was 0.1086 and the “Mean Diff. of fold change” value (K65R vs T215Y_3_TAMs_118) was 0.1725. For the same compound, the “Mean Diff. of fold change” value (K65R vs T215Y_3_TAMs_208) was 0.1729, the “Mean Diff. of fold change” value (K65R vs T215Y_3_TAMs_no118) was 0.06597 and the “Mean Diff. of fold change” value (K65R vs T215Y_3_TAMs_no208) was 0.09835. The “Mean Diff. of fold change” value (K70R_3_TAMs vs T215Y_3_TAMs_118) was 0.3569, the “Mean Diff. of fold change” value (K70R_3_TAMs vs T215Y_3_TAMs_no118) was 0.2503 and the “Mean Diff. of fold change” value (M184V vs K65R + M184V) was 0.2677. The “Mean Diff. of fold change” value (M184V vs K70R_3_TAMs) was −0.02944, the “Mean Diff. of fold change” value (M184V vs T69) was −0.09699 and the “Mean Diff. of fold change” value (M184V vs T215Y_3_TAMs) was 0.2635. For the same compound, the “Mean Diff. of fold change” value (M184V vs T215Y_3_TAMs_118) was 0.3274, the “Mean Diff. of fold change” value (M184V vs T215Y_3_TAMs_208) was 0.3278 and the “Mean Diff. of fold change” value (M184V vs T215Y_3_TAMs_no118) was 0.2209. The “Mean Diff. of fold change” value (M184V vs T215Y_3_TAMs_no208) was 0.2532, the “Mean Diff. of fold change” value (T69 vs K65R + M184V) was 0.3647 and the “Mean Diff. of fold change” value (T69 vs K70R_3_TAMs) was 0.06756. For the same compound, the “Mean Diff. of fold change” value (T69 vs T215Y_3_TAMs) was 0.3605, the “Mean Diff. of fold change” value (T69 vs T215Y_3_TAMs_118) was 0.4244 and the “Mean Diff. of fold change” value (T69 vs T215Y_3_TAMs_208) was 0.4248. For the same compound, the “Mean Diff. of fold change” value (T69 vs T215Y_3_TAMs_no118) was 0.3179, the “Mean Diff. of fold change” value (T69 vs T215Y_3_TAMs_no208) was 0.3502 and the “Mean Diff. of fold change” value (T215Y_3_TAMs vs K70R_3_TAMs) was −0.2929. The “Mean Diff. of fold change” value (T215Y_3_TAMs vs T215Y_3_TAMs_118) was 0.06394, the “Mean Diff. of fold change” value (T215Y_3_TAMs vs T215Y_3_TAMs_208) was 0.06431 and the “Mean Diff. of fold change” value (T215Y_3_TAMs vs T215Y_3_TAMs_no118) was −0.04263. The “Mean Diff. of fold change” value (T215Y_3_TAMs vs T215Y_3_TAMs_no208) was −0.01025, the “Mean Diff. of fold change” value (T215Y_3_TAMs_208 vs K70R_3_TAMs) was −0.3572 and the “Mean Diff. of fold change” value (T215Y_3_TAMs_208 vs T215Y_3_TAMs_118) was −0.0003693. For the same compound, the “Mean Diff. of fold change” value (T215Y_3_TAMs_208 vs T215Y_3_TAMs_no118) was −0.1069, the “Mean Diff. of fold change” value (T215Y_3_TAMs_208 vs T215Y_3_TAMs_no208) was −0.07456 and the “Mean Diff. of fold change” value (T215Y_3_TAMs_no118 vs T215Y_3_TAMs_118) was 0.1066. The “Mean Diff. of fold change” value (T215Y_3_TAMs_no208 vs K70R_3_TAMs) was −0.2827, the “Mean Diff. of fold change” value (T215Y_3_TAMs_no208 vs T215Y_3_TAMs_118) was 0.07419 and the “Mean Diff. of fold change” value (T215Y_3_TAMs_no208 vs T215Y_3_TAMs_no118) was −0.03237. For the same compound, the “mean fold change (FC) compared to the WT population” value (all groups containing NAMs or the combination of TAMs shown in Table 1, p<0.0001, Student's T-test) was “significantly lower”, the “Mean Diff. of fold change” value (wt vs 1 NAM) was 0.2652 and the “Mean Diff. of fold change” value (wt vs 2 NAMs) was 0.4373. The “Mean Diff. of fold change” value (wt vs 3 NAMs) was 0.3908, the “Mean Diff. of fold change” value (wt vs K65R) was 0.4217 and the “Mean Diff. of fold change” value (wt vs K65R + M184V) was 0.5346. For the same compound, the “Mean Diff. of fold change” value (wt vs K70R_3_TAMs) was 0.2374, the “Mean Diff. of fold change” value (wt vs M184V) was 0.2668 and the “Mean Diff. of fold change” value (wt vs T69) was 0.1698. For the same compound, the “Mean Diff. of fold change” value (wt vs T215Y_3_TAMs) was 0.5303, the “Mean Diff. of fold change” value (wt vs T215Y_3_TAMs_118) was 0.5942 and the “Mean Diff. of fold change” value (wt vs T215Y_3_TAMs_208) was 0.5946. For the same compound, the “Mean Diff. of fold change” value (wt vs T215Y_3_TAMs_no118) was 0.4877 and the “Mean Diff. of fold change” value (wt vs T215Y_3_TAMs_no208) was 0.5201.
